In US20090130261A1, “Vit-A-Cup” (priority 2007, published 2009):
Read-outs that look alike come from different tables or passages of the source.

Key:
[1] = compatibility and stability of additives dissolved or suspended in water-based polyacrylic acid carbomer matrixes; conditions: for compatibility in carrier matrix: short term
Excerpt: (§1) The differing chemical characteristics of the various additives require each ingredient or blend of ingredients to be dissolved or suspended in a customized matrix in order to ensure desired delivery of the additive in question. […] A number of characteristics were studied for each desired additive compound or complex, such as the degree of chemical affinity to water, solubility rates in various solvents and at various levels of pH, and degradation rates upon exposure to various environmental factors including oxygen levels in ambient air and temperature, as well as individual tolerance to extreme shifts in pH levels.

[2] = solubility characteristics of additives
Excerpt: as §1
This is accomplished, for example, in a suspension of 3% Xanthan gum and 0.5% Noveon Carbopol Carbomer in distilled water with 20% Ethanol (to aid in speeding the drying time). This solution is then sprayed on to the interior of the cup and allowed to dry. […] Again, this would be delivered in a flavor-masked suspension of 3% Xanthan gum and 0.5% Noveon Carbopol Carbomer.

[3] = dissolved or suspended in water-based polyacrylic acid carbomer matrixes
[4] = require suspension prior to administration to the cup

| Compound | stability in carrier matrix [1] | compatibility in carrier matrix [1, 3] | also measured |
| --- | --- | --- | --- |
| Vitamin E | – | – | solubility [2]: Insoluble |
| NC(=O)C[C@H](N)C(=O)O [Asparagine] | stable | compatible | – |
| [Zn] [Zinc] | – | – | solubility [2, 4]: Insoluble |
| Nc1nc2ncc(CNc3ccc(C(=O)N[C@@H](CCC(=O)O)C(=O)O)cc3)nc2c(=O)[nH]1 [Folic Acid] | – | – | solubility [2]: Insoluble |
| N[C@@H](Cc1c[nH]c2ccccc12)C(=O)O [Tryptophan] | stable | compatible | – |
| C[C@H](N)C(=O)O [Alanine] | stable | compatible | – |
| Iodine | – | – | solubility [2, 4]: Insoluble |
| NCCCC[C@H](N)C(=O)O [Lysine] | stable | compatible | – |
| [Mo] [Molybdenum] | – | – | solubility [2]: Insoluble |
| N=C(N)NCCC[C@H](N)C(=O)O [Arginine] | stable | compatible | – |
| COC1=C(OC)C(=O)C(C/C=C(\C)CC/C=C(\C)CC/C=C(\C)CC/C=C(\C)CC/C=C(\C)CC/C=C(\C)CC/C=C(\C)CC/C=C(\C)CC/C=C(\C)CCC=C(C)C)=C(C)C1=O [Coenzyme Q10] | – | – | solubility [2, 4]: Insoluble |
| Nc1ccc(C(=O)O)cc1 [PABA, Para-Aminobenzoic Acid] | – | – | solubility [2, 4]: Insoluble |
| [Cu] [Copper] | – | – | solubility [2]: Insoluble |
| O=C(O)CCCC[C@@H]1SC[C@@H]2NC(=O)N[C@@H]21 [Biotin] | stable | compatible | – |
| Vitamin D | – | – | solubility [2, 4]: Insoluble |
| [Se] [Selenium] | – | – | solubility [2, 4]: Insoluble |
| C[N+](C)(C)CCO [Choline] | stable | – | – |
| Vitamin K | – | – | solubility [2]: Insoluble |
| [Mn+2] [Manganese] | – | – | solubility [2, 4]: Insoluble |
| [Mg+2] [Magnesium] | – | – | solubility [2, 4]: Insoluble |
| N[C@@H](CS)C(=O)O [Cysteine] | stable | compatible | – |
| [Cr] [Chromium] | – | – | solubility [2, 4]: Insoluble |
| N[C@@H](CC(=O)O)C(=O)O [Aspartic acid] | stable | compatible | – |
| [K+] [Potassium] | – | – | solubility [2]: Insoluble |

Further lines, with some results ahead:

| stability in carrier matrix [1] | compatibility in carrier matrix [1, 3] | Compound | also measured |
| --- | --- | --- | --- |
| stable | compatible | Cc1ncc(CO)c(CO)c1O [Vitamin B6, Pyridoxine] | – |
| stable | compatible | N[C@@H](Cc1ccc(O)cc1)C(=O)O [Tyrosine] | – |
| stable | compatible | CC[C@H](C)[C@H](N)C(=O)O [Isoleucine] | – |
| stable | compatible | NCC(=O)O [Glycine] | – |
| stable | compatible | Cyanocobalamin [Vitamin B12] | – |
| stable | compatible | N[C@@H](Cc1ccccc1)C(=O)O [Phenylalanine] | – |
| stable | compatible | N[C@@H](Cc1c[nH]cn1)C(=O)O [Histidine] | – |
| stable | compatible | CSCC[C@H](N)C(=O)O [Methionine] | – |
| stable | compatible | C[C@@H](O)[C@H](N)C(=O)O [Threonine] | – |
| stable | compatible | CC(C)[C@H](N)C(=O)O [Valine] | – |
| stable | compatible | NC(=O)CC[C@H](N)C(=O)O [Glutamine] | – |
| stable | compatible | CC1=C(/C=C/C(C)=C/C=C/C(C)=C/C=C/C=C(C)/C=C/C=C(C)/C=C/C2=C(C)CCCC2(C)C)C(C)(C)CCC1 [Vitamin A, Beta-Carotene] | – |
| stable | compatible | CC(C)C[C@H](N)C(=O)O [Leucine] | – |
| stable | compatible | CC(C)(CO)[C@@H](O)C(=O)NCCC(=O)O [Vitamin B5, Pantothenic Acid] | – |
| stable | compatible | N[C@@H](CO)C(=O)O [Serine] | – |
| – | compatible | N[C@@H](CCC(=O)O)C(=O)O [Glutamic acid] | stability in carrier matrix ([1]; dissolved or suspended in water-based polyacrylic acid carbomer matrixes, longer term): stable |
| stable | compatible | Cc1ncc(C[n+]2csc(CCO)c2C)c(N)n1 [Vitamin B1, Thiamine] | – |
| stable | compatible | O=C(O)[C@@H]1CCCN1 [Proline] | – |
| stable | compatible | Cc1cc2nc3c(=O)[nH]c(=O)nc-3n(C[C@H](O)[C@H](O)[C@H](O)CO)c2cc1C [Vitamin B2, Riboflavin] | – |
